Test results from patent US7138361B2, “Herbicidal heterocycles” (E. I. du Pont de Nemours and Company, priority 2000, dated 2006).

Experiments:
Assay type in all cases: in vivo
[1] = system: woolly cupgrass (Eriochloa villosa); assay: Test C preemergence; settings: for Plant response rating (0 to 100), Cupgrass, Woolly: Rate 500 g/ha, visual evaluation after 12 to 14 days
Summary of the method: (§1)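 Seeds are planted and treated before emergence; for the postemergence test, plants at 1- to 4-leaf stage (2–18 cm) receive the same formulation, a solvent blend containing surfactant. Plants stay in the greenhouse 12–14 days, then response is scored visually from 0 (none) to 100 (complete control).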

Nightshade = assay: Test C preemergence
[2] = system: Surinam grass (Brachiaria decumbens); assay: Test C preemergence; settings: for Plant response rating (0 to 100), Surinam grass: Rate 500 g/ha, visual evaluation after 12 to 14 days
Summary of the method: as §1

[3] = system: yellow nutsedge (Cyperus esculentus); assay: Test C preemergence; settings: for Plant response rating (0 to 100), Nutsedge: Rate 500 g/ha, visual evaluation after 12 to 14 days
Summary of the method: as §1

corn (Zea mays) = assay: Test C preemergence; settings: for Plant response rating (0 to 100), Corn: Rate 500 g/ha, visual evaluation after 12 to 14 days
Summary of the method: as §1

[4] = system: morningglory (Ipomoea hederacea); assay: Test C preemergence; settings: for Plant response rating (0 to 100), Morningglory: Rate 500 g/ha, visual evaluation after 12 to 14 days
Summary of the method: as §1

[5] = system: pigweed (Amaranthus retroflexus); assay: Test C preemergence; settings: for Plant response rating (0 to 100), Pigweed: Rate 500 g/ha, visual evaluation after 12 to 14 days
Summary of the method: as §1

[6] = system: johnsongrass (Sorghum halepense); assay: Test C preemergence; settings: for Plant response rating (0 to 100), Johnsongrass: Rate 500 g/ha, visual evaluation after 12 to 14 days
Summary of the method: as §1

[7] = system: giant foxtail (Setaria faberii); assay: Test C preemergence; settings: for Plant response rating (0 to 100), Foxtail, Giant: Rate 500 g/ha, visual evaluation after 12 to 14 days
Summary of the method: as §1

[8] = system: common ragweed (Ambrosia elatior); assay: Test C preemergence; settings: for Plant response rating (0 to 100), Ragweed, Common: Rate 500 g/ha, visual evaluation after 12 to 14 days
Summary of the method: as §1

[9] = system: lambsquarters (Chenopodium album); assay: Test C preemergence; settings: for Plant response rating (0 to 100), Lambsquarters: Rate 500 g/ha, visual evaluation after 12 to 14 days
Summary of the method: as §1

Sunflower = assay: Test C preemergence; settings: Rate 62 g/ha, scale 0 to 100
[10] = system: duck salad (Heteranthera limosa); assay: Test C flooded paddy test; settings: for Ducksalad plant response rating: Flooded Paddy, scale 0 to 100, 0 no effect, 100 complete control; for Plant response rating, Ducksalad / Plant response rating (scale 0 to 100), Ducksalad: flooded paddy test; for Plant response rating, Ducksalad: scale 0 to 100 (0 no effect, 100 complete control)
Summary of the method: (§2)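 Plants were grown to the 2-leaf stage under flooded paddy conditions and treated. They were then kept in a greenhouse for 12 to 14 days and visually rated against untreated controls on a 0–100 scale, where 0 is no effect and 100 is complete control.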

[11] = system: smallflower flatsedge (Cyperus difformis); assay: Test C flooded paddy test; settings: for Flatsedge plant response rating: Flooded Paddy, scale 0 to 100, 0 no effect, 100 complete control; for Plant response rating, Flatsedge / Plant response rating (scale 0 to 100), Flatsedge: flooded paddy test; for Plant response rating, Flatsedge: scale 0 to 100 (0 no effect, 100 complete control)
Summary of the method: as §2

[12] = system: barnyardgrass (Echinochloa crus-galli); assay: Test C flooded paddy test; settings: for Barnyardgrass plant response rating: Flooded Paddy, scale 0 to 100, 0 no effect, 100 complete control; for Plant response rating, Barnyardgrass / Plant response rating (scale 0 to 100), Barnyardgrass: flooded paddy test; for Plant response rating, Barnyardgrass: scale 0 to 100 (0 no effect, 100 complete control)
Summary of the method: as §2

rice (Oryza saliva) = assay: Test C flooded paddy test; settings: for Rice plant response rating: Flooded Paddy, scale 0 to 100, 0 no effect, 100 complete control; for Plant response rating, Rice / Plant response rating (scale 0 to 100), Rice: flooded paddy test; for Plant response rating, Rice: scale 0 to 100 (0 no effect, 100 complete control)
Summary of the method: as §2

[13] = system: velvetleaf (Abutilon theophrasti); assay: Test B preemergence
Summary of the method: (§3)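 Preemergence: seeds planted and treated with test chemicals in non-phytotoxic solvent with surfactant; postemergence on plants 2–18 cm (1- to 4-leaf stage). Kept in greenhouse 13–15 days, then visually rated against controls on a 0 (no effect) to 100 (complete control) scale.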

[14] = system: barnyardgrass (Echinochloa crus-galli); assay: Test B preemergence
Summary of the method: as §3

[15] = Rate 125 g/ha, scale 0 to 100, 0 no effect, 100 complete control
[16] = preemergence, Rate 62 g/ha, scale 0 to 100
[17] = preemergence, Rate 250 g/ha, scale 0 to 100, 0 no effect, 100 complete control
[18] = Rate 250 g/ha, scale 0 to 100, 0 no effect, 100 complete control
[19] = Rate 62 g/ha, visually evaluated after 12 to 14 days, 0 = no effect, 100 = complete control
[20] = Preemergence, Rate 500 g/ha, scale 0 to 100, 0 no effect, 100 complete control
[21] = preemergence, Rate 125 g/ha, scale of 0 to 100 where 0 is no effect and 100 is complete control, 13 to 15 days
[22] = Rate 16 g/ha, visually evaluated after 12 to 14 days, 0 = no effect, 100 = complete control
[23] = under head Rate 16 g/ha, (own rate not given), after 12 to 14 days

SMILES: COc1cc(N2CCC(n3ccc(C(C)C)n3)C2=O)ccc1Br (stereo not drawn) [Compound 140]
- Plant response rating, Cupgrass, Woolly [1, 15]: 100
- Plant response rating, Cupgrass, Woolly [1, 16]: 100
- Plant response rating (0 to 100), Cupgrass, Woolly ([1]; preemergence): 100
- Plant response rating, Cupgrass, Woolly [1, 17]: 100
- Plant response rating, Nightshade (Nightshade; Rate 62 g/ha, scale 0 to 100): 100
- Plant response rating, Nightshade (Nightshade; [15]): 100
- Plant response rating, Nightshade (Nightshade; [18]): 100
- Plant response rating, Surinam grass [2, 15]: 0
- Plant response rating, Surinam grass [2, 16]: 0
- Plant response rating (0 to 100), Surinam grass ([2]; preemergence): 100
- Plant response rating, Surinam grass [2, 17]: 90
- Plant response rating, Nutsedge [3, 15]: 40
- Plant response rating, Nutsedge [3, 16]: 20
- Plant response rating (0 to 100), Nutsedge ([3]; preemergence): 70
- Plant response rating, Nutsedge [3, 17]: 60
- Plant response rating, Corn (corn (Zea mays); [15]): 20
- Plant response rating, Corn (corn (Zea mays); [16]): 20
- Plant response rating (0 to 100), Corn (corn (Zea mays); preemergence): 30
- Plant response rating, Corn (corn (Zea mays); [17]): 30
- Plant response rating, Morningglory [4, 15]: 90
- Plant response rating, Morningglory [4, 16]: 70
- Plant response rating (0 to 100), Morningglory ([4]; preemergence): 100
- Plant response rating, Morningglory [4, 17]: 100
- Plant response rating, Pigweed [5, 15]: 100
- Plant response rating, Pigweed [5, 16]: 100
- Plant response rating (0 to 100), Pigweed ([5]; preemergence): 100
- Plant response rating, Pigweed [5, 17]: 100
- Plant response rating, Johnsongrass [6, 15]: 20
- Plant response rating, Johnsongrass [6, 16]: 0
- Plant response rating (0 to 100), Johnsongrass ([6]; preemergence): 100
- Plant response rating, Johnsongrass [6, 17]: 100
- Plant response rating, Foxtail, Giant [7, 15]: 100
- Plant response rating, Foxtail, Giant [7, 16]: 100
- Plant response rating (0 to 100), Foxtail, Giant ([7]; preemergence): 100
- Plant response rating, Foxtail, Giant [7, 17]: 100
- Plant response rating, Ragweed, Common [8, 16]: 100
- Plant response rating (0 to 100), Ragweed, Common ([8]; preemergence): 100
- Plant response rating, Ragweed, Common [8, 17]: 100
- Plant response rating, Lambsquarters [9, 15]: 100
- Plant response rating, Lambsquarters [9, 16]: 100
- Plant response rating (0 to 100), Lambsquarters ([9]; preemergence): 100
- Plant response rating, Lambsquarters [9, 17]: 100
- Plant response rating, Sunflower (Sunflower): 30
- Ducksalad plant response rating ([10]; Rate 500 g/ha): 95
- Plant response rating, Ducksalad ([10]; Rate 125 g/ha): 75
- Plant response rating, Ducksalad ([10]; Rate 250 g/ha): 95
- Plant response rating (scale 0 to 100), Ducksalad [10, 19]: 20
- Flatsedge plant response rating ([11]; Rate 500 g/ha): 95
- Plant response rating, Flatsedge ([11]; Rate 125 g/ha): 90
- Plant response rating, Flatsedge ([11]; Rate 250 g/ha): 95
- Plant response rating (scale 0 to 100), Flatsedge [11, 19]: 90
- Barnyardgrass plant response rating ([12]; Rate 500 g/ha): 100
- Plant response rating, Barnyardgrass ([12]; Rate 125 g/ha): 100
- Plant response rating, Barnyardgrass ([12]; Rate 250 g/ha): 100
- Plant response rating (scale 0 to 100), Barnyardgrass [12, 19]: 50
- Rice plant response rating (rice (Oryza saliva); Rate 500 g/ha): 50
- Plant response rating, Rice (rice (Oryza saliva); Rate 125 g/ha): 30
- Plant response rating, Rice (rice (Oryza saliva); Rate 250 g/ha): 35
- Plant response rating (scale 0 to 100), Rice (rice (Oryza saliva); [19]): 0
- Plant response rating, Velvetleaf [13, 20]: 80
- Plant response rating, Velvetleaf [13, 21]: 60
- Plant response rating, Barnyardgrass [14, 20]: 100
- Plant response rating, Barnyardgrass [14, 21]: 100

SMILES: CCC(CC)c1ccn(C2OCN(c3cccc(OC(F)F)c3)C2=O)n1 (stereo not drawn) [Compound 131]
- Plant response rating, Cupgrass, Woolly [1, 15]: 100
- Plant response rating, Cupgrass, Woolly [1, 16]: 100
- Plant response rating (0 to 100), Cupgrass, Woolly ([1]; preemergence): 100
- Plant response rating, Cupgrass, Woolly [1, 17]: 100
- Plant response rating, Nightshade (Nightshade; Rate 62 g/ha, scale 0 to 100): 90
- Plant response rating, Nightshade (Nightshade; [15]): 100
- Plant response rating, Nightshade (Nightshade; [18]): 100
- Plant response rating, Surinam grass [2, 15]: 100
- Plant response rating, Surinam grass [2, 16]: 100
- Plant response rating (0 to 100), Surinam grass ([2]; preemergence): 100
- Plant response rating, Surinam grass [2, 17]: 100
- Plant response rating, Nutsedge [3, 15]: 90
- Plant response rating, Nutsedge [3, 16]: 0
- Plant response rating (0 to 100), Nutsedge ([3]; preemergence): 100
- Plant response rating, Nutsedge [3, 17]: 90
- Plant response rating, Corn (corn (Zea mays); [15]): 100
- Plant response rating, Corn (corn (Zea mays); [16]): 100
- Plant response rating (0 to 100), Corn (corn (Zea mays); preemergence): 100
- Plant response rating, Corn (corn (Zea mays); [17]): 100
- Plant response rating, Morningglory [4, 15]: 60
- Plant response rating, Morningglory [4, 16]: 0
- Plant response rating (0 to 100), Morningglory ([4]; preemergence): 90
- Plant response rating, Morningglory [4, 17]: 90
- Plant response rating, Pigweed [5, 15]: 90
- Plant response rating, Pigweed [5, 16]: 90
- Plant response rating (0 to 100), Pigweed ([5]; preemergence): 100
- Plant response rating, Pigweed [5, 17]: 100
- Plant response rating, Johnsongrass [6, 15]: 70
- Plant response rating, Johnsongrass [6, 16]: 30
- Plant response rating (0 to 100), Johnsongrass ([6]; preemergence): 100
- Plant response rating, Johnsongrass [6, 17]: 80
- Plant response rating, Foxtail, Giant [7, 15]: 100
- Plant response rating, Foxtail, Giant [7, 16]: 90
- Plant response rating (0 to 100), Foxtail, Giant ([7]; preemergence): 100
- Plant response rating, Foxtail, Giant [7, 17]: 100
- Plant response rating, Ragweed, Common [8, 15]: 0
- Plant response rating, Ragweed, Common [8, 16]: 0
- Plant response rating (0 to 100), Ragweed, Common ([8]; preemergence): 100
- Plant response rating, Ragweed, Common [8, 17]: 0
- Plant response rating, Lambsquarters [9, 15]: 100
- Plant response rating, Lambsquarters [9, 16]: 100
- Plant response rating (0 to 100), Lambsquarters ([9]; preemergence): 100
- Plant response rating, Lambsquarters [9, 17]: 100
- Plant response rating, Sunflower (Sunflower): 20
- Ducksalad plant response rating ([10]; Rate 250 g/ha): 100
- Ducksalad plant response rating ([10]; Rate 500 g/ha): 100
- Plant response rating, Ducksalad ([10]; Rate 125 g/ha): 100
- Plant response rating (scale 0 to 100), Ducksalad [10, 22]: 70
- Plant response rating (scale 0 to 100), Ducksalad [10, 19]: 80
- Plant response rating (scale 0 to 100), Ducksalad [10, 23]: 20
- Flatsedge plant response rating ([11]; Rate 250 g/ha): 100
- Flatsedge plant response rating ([11]; Rate 500 g/ha): 100
- Plant response rating, Flatsedge ([11]; Rate 125 g/ha): 100
- Plant response rating (scale 0 to 100), Flatsedge [11, 22]: 90
- Plant response rating (scale 0 to 100), Flatsedge [11, 19]: 90
- Plant response rating (scale 0 to 100), Flatsedge [11, 23]: 90
- Barnyardgrass plant response rating ([12]; Rate 250 g/ha): 100
- Barnyardgrass plant response rating ([12]; Rate 500 g/ha): 100
- Plant response rating, Barnyardgrass ([12]; Rate 125 g/ha): 100
- Plant response rating (scale 0 to 100), Barnyardgrass [12, 22]: 60
- Plant response rating (scale 0 to 100), Barnyardgrass [12, 19]: 100
- Plant response rating (scale 0 to 100), Barnyardgrass [12, 23]: 50
- Rice plant response rating (rice (Oryza saliva); Rate 250 g/ha): 80
- Rice plant response rating (rice (Oryza saliva); Rate 500 g/ha): 90
- Plant response rating, Rice (rice (Oryza saliva); Rate 125 g/ha): 15
- Plant response rating (scale 0 to 100), Rice (rice (Oryza saliva); [22]): 0
- Plant response rating (scale 0 to 100), Rice (rice (Oryza saliva); [19]): 0
- Plant response rating (scale 0 to 100), Rice (rice (Oryza saliva); [23]): 0
- Plant response rating, Velvetleaf [13, 20]: 40
- Plant response rating, Velvetleaf [13, 21]: 0
- Plant response rating, Barnyardgrass [14, 20]: 100
- Plant response rating, Barnyardgrass [14, 21]: 100
